Experimental data reported in patent US4880824A, “Phenyl and benzoyl substituted imidazo-fused heterocyclic calcium channel blockers” (Ortho Pharmaceutical Corporation, priority 1987, dated 1989).
Counter-ions that a name gives are not always drawn.

Key:
[1] = system: calcium dependent smooth muscle contraction (trachea); experiment: Inhibition of Calcium Dependent Smooth Muscle Contraction (ICDSMC); design: species or system dogs; details: Canis lupus familiaris, 50 mM KCl
Experimental: Tracheal rings, one cartilage segment wide (5-10 mm), are cut starting from the bronchial end. After cutting the cartilage, the trachealis muscle tissue is suspended in oxygenated Krebs-Henseleit buffer at 37° C. in a 25 mL tissue bath. After a 60 min equilibration period, the tissues are challenged with 10 μM carbachol. After 5 min the tissues are rinsed and allowed to rest 50 min. The tissues are then challenged with 50 mM KCl and after 30 min, the contractions are quantitated. The tissues are then rinsed and reequilibrated for 50 min. Test compounds are then added for 10 min, and the tissue is rechallenged with 50 mM KCl.
The percent inhibition of smooth muscle contraction is calculated from response data before and after drug treatment according to the following equation. [formula]

[2] = molecular target: T1, calcium channel (specifically bound 3H-nitrendipine, heart membranes) (Oryctolagus cuniculus, UniProt P15381); experiment: Nitrendipine Binding Assay (NBA); design: species or system New Zealand white rabbits; details: for IC50: 3H-nitrendipine 0.05-0.50 nM, 90 min at 4° C., pH 7.4
T1 construct: The heart is immediately removed, cleaned and chopped into small pieces; from tissue; host or cells: heart membranes of female New Zealand white rabbits (42,000×g pellet)
Experimental: The NBA is performed on female, New Zealand white rabbits (1-2 kg) which are sacrificed by cervical dislocation. The heart is immediately removed, cleaned and chopped into small pieces. The tissue is homogenized in 5X volume of 0.05M Hepes buffer, pH 7.4. The homogenate is centrifuged at 4000×g for 10 min; the supernatant is recentrifuged at 42,000×g for 90 min. The resulting membrane pellet is resuspended (0.7 ml/g weight in 0.05M Hepes, pH 7.4 and stored at -70° C. until used. Each tube of the binding assay contains ^3 H-nitrendipine (0.05-0.50nM), buffer, membranes (0.10mL), and test compound in a total volume of 1.0 mL. After 90 min at 4° C., the bound nitrendipine is separated from the unbound by filtration on Whatman GF/C fibers. After rinsing, the filters are dried and counted in a liquid scintillation counter.
Non-specific binding of ^3 H-nitrendipine (that amount bound in the presence of excess unlabelled nitrendipine) is subtracted from the total bound to obtain specifically bound radiolabeled nitrendipine. The amount of specifically bound nitrendipine in the presence of a test compound is compared to that amount bound in the absence of a compound. A percent displacement (or inhibition) can then be obtained.

T1 sequence (P15381 whole entry, other chains not shown): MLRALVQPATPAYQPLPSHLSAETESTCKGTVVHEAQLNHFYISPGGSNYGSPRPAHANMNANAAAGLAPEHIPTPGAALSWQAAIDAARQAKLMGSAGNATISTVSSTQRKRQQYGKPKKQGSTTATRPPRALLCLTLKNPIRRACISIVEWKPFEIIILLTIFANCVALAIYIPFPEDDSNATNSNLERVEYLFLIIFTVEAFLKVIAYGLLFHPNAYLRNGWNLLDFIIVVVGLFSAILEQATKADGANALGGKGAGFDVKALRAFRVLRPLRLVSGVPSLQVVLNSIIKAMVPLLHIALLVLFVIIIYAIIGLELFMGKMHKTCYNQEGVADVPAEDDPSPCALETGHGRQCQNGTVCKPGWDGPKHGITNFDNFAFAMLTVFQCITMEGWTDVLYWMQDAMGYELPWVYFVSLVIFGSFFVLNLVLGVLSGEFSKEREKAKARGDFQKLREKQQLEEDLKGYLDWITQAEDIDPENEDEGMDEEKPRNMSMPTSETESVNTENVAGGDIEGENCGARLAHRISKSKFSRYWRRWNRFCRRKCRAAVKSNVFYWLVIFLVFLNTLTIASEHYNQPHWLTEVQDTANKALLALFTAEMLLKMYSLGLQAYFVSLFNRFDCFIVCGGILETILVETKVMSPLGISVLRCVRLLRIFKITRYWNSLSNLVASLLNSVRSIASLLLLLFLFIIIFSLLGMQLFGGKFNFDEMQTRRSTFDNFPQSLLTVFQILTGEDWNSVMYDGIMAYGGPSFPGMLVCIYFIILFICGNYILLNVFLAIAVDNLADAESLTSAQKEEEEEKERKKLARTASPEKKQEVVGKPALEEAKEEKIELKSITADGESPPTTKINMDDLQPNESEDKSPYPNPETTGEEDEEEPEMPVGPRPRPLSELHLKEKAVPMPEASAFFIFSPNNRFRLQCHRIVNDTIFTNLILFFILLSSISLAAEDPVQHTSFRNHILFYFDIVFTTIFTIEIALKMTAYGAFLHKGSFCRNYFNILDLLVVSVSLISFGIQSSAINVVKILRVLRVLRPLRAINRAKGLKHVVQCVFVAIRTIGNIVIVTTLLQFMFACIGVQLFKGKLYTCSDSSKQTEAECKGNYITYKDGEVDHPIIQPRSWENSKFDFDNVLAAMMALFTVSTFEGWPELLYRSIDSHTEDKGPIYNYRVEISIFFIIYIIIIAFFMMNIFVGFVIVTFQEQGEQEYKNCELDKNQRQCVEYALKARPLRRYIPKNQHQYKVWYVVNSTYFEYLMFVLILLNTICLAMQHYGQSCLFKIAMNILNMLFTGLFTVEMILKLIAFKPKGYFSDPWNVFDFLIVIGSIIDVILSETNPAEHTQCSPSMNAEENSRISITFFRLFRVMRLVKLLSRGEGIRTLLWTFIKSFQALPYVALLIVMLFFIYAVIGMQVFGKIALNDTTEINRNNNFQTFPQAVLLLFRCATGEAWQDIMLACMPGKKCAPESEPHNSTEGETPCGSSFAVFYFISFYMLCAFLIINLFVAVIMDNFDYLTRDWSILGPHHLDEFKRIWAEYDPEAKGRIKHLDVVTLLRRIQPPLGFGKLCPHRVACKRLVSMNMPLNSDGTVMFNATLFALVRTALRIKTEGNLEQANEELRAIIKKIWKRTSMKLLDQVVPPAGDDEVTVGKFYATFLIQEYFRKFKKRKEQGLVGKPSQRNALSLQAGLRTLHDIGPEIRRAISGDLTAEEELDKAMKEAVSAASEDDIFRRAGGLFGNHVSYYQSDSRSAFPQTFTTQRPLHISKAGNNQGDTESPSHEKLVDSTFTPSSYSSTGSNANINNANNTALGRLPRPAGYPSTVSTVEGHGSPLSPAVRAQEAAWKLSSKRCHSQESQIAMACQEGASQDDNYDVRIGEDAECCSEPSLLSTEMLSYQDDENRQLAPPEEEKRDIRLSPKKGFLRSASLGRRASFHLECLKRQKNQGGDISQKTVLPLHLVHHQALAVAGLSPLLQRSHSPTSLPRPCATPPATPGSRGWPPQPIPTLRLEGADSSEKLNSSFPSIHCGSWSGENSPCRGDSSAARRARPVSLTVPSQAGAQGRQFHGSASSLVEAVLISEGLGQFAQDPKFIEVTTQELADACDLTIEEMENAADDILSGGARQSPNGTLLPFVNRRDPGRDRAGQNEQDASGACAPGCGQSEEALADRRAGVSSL
T1 sequence (P13806 27-960 partner limits assumed, other chains not shown): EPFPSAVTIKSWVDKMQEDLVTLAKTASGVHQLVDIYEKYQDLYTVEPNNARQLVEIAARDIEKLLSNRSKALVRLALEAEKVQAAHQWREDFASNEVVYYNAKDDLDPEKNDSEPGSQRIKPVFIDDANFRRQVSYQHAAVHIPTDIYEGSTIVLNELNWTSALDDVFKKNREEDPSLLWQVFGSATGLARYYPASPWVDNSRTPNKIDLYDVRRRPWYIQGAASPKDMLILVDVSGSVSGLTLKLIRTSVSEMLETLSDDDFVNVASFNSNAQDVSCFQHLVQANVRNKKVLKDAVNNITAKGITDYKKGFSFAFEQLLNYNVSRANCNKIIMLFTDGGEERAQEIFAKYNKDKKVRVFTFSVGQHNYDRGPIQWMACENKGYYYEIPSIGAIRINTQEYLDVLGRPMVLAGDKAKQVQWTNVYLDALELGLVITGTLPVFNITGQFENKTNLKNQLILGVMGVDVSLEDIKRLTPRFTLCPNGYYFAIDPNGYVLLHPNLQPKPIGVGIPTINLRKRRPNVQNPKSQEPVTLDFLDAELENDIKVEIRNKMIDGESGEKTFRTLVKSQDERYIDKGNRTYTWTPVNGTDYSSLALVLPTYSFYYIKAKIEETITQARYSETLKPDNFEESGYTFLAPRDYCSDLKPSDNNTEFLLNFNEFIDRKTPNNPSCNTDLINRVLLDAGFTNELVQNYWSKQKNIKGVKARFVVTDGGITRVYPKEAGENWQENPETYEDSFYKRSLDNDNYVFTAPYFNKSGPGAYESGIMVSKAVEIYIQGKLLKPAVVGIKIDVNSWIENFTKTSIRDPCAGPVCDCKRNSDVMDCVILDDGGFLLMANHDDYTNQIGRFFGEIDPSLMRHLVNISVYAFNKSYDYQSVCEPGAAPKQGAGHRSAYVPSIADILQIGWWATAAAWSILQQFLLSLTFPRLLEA
T1 sequence (P13806 961-1106 partner limits assumed, other chains not shown): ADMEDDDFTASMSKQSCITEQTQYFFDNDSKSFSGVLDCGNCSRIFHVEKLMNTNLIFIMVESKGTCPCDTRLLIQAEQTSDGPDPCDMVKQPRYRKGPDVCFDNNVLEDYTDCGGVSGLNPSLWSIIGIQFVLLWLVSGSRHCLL

Q: Which results are given for `CCCCN(CCCC)CCCOc1ccc(-c2cn3nc(C)sc3n2)cc1` [Example 1d, 6-(4-Dibutylaminopropoxyphenyl)-2-methylimidazo[2,1-b]-1,3,4-thiadiazoledihydrochloride]?
A: inhibition at 1 µM [1]: 50%; inhibition at 5 µM ([1]; @ 5 μM): 27%; inhibition at 10 µM [1]: 82%; IC50 [2]: 1.1 µM

Q: Which results are given for `CCCCN(CCCC)CCCOc1ccc(-c2cn3c(n2)sc2ccccc23)cc1` [Example 4, 6-(4-Dibutylaminopropoxyphenyl)imidazo[2,1-b]benzothiadihydrochloride]?
A: inhibition at 20 µM [1]: 38%; IC50 [2]: 3.1 µM

Q: With `CCCCN(CCCC)CCCOc1ccc(-c2cn3nccnc3n2)cc1` [Example 5, 2-(4-Dibutylaminopropoxyphenyl)imidazo[1,2-b]-1,2,4-triazine hydrochloride] as the compound, how does the inhibition at 10 µM [1] read?
A: 45%

Q: What about the inhibition at 20 µM [1] of the same compound?
A: 85%

Q: And the IC50 [2]?
A: 0.6 µM

Q: Which inhibition at 1 µM [1] does the source give for `CCCCN(CCCC)CCCOc1ccc(-c2cn3ccsc3n2)cc1` [Example 2, 6-(4-Dibutylaminopropoxyphenyl)imidazo[2,1-b]thiazole dihydrochloride] here?
A: 8%

Q: And the inhibition at 2 µM [1]?
A: 24%

Q: And the inhibition at 10 µM [1]?
A: 55%

Q: What about the inhibition at 20 µM [1] of the same compound?
A: 81%

Q: What about the IC50 [2] of the same compound?
A: 1.5 µM

Q: `CCCCN(CCCC)CCCOc1ccc(-c2nc3sccn3c2C)cc1` [Example 3, 6-(4-Dibutylaminopropoxyphenyl)-5-methylimidazo[2,1-b]thiazole hydrochloride] was tested. Which inhibition at 1 µM [1] did it give?
A: 11%

Q: And the inhibition at 10 µM [1]?
A: 75%

Q: What about the IC50 [2] of the same compound?
A: 1.3 µM

Q: For `CCCCN(CCCC)CCCOc1ccc(C(=O)c2cnc3nc(C)ccn23)cc1` [Example 9b, 3-(4-Dibutylaminopropoxybenzoyl)-7-methylimidazo[1,2-a]-pyrimidine hydrochloride], which inhibition at 10 µM [1] is on record?
A: 19%

Q: `CCCCN(CCCC)CCCOc1ccc(-c2cn3cccnc3n2)cc1` [Example 6, 2-(4-Dibutylaminopropoxyphenyl)imidazo[1,2-a]pyrimidine dihydrochloride] was tested. Which inhibition at 2 µM [1] did it give?
A: 26%

Q: What about the inhibition at 10 µM [1] of the same compound?
A: 46%

Q: And the inhibition at 20 µM [1]?
A: 65%

Q: And the inhibition at 68 µM ([2]; @ 68 μM, read-out: NBA percent displacement (or inhibition))?
A: 43%

Q: What does the source list for `CCCCN(CCCC)CCCOc1ccc(C(=O)c2cnc3ncccn23)cc1` [Example 8c, 3-(4-Dibutylaminopropoxybenzoyl)imidazo[1,2-a]pyrimidine dihydrochloride]?
A: inhibition at 1 µM [1]: 70%; inhibition at 0.1 µM ([1]; @ .1 μM): 37%; inhibition at 0.5 µM ([1]; @ .5 μM): 60%; IC50 [2]: 7 µM

Q: Which results are given for `CCCCN(CCCC)CCCOc1ccc(-c2cn3ccc(C)nc3n2)cc1` [Example 7, 2-(4-Dibutylaminopropoxyphenyl)-7-methylimidazo-[1,2-a]pyrimidine trihydrochloride]?
A: inhibition at 2 µM [1]: 25%; inhibition at 10 µM [1]: 39%
